{"source": "patent US20070148710A1", "about": "“Cpt resistant cell line” (priority 2003, published 2007)", "assay_type_in_all_cases": "cell-based, human", "key": {"SW948": {"test_system": "SW948", "assay": "cell proliferation assay, cross-resistance to topoisomerase I and II inhibitors", "settings": "SW948 parental, mean ± SD, 2-4 independent assays; for IC50: Homo sapiens, read-out: Sensitivity expressed as IC50", "excerpt": "(§1) Drug resistance to other topoisomerase I and II inhibitors was examined by determining the IC50 dose of each drug using a cell proliferation assay as shown in Table 3."}, "SW948CPTH": {"test_system": "SW948CPTH", "assay": "cell proliferation assay, cross-resistance to topoisomerase I and II inhibitors", "settings": "for IC50: Homo sapiens, read-out: Sensitivity expressed as IC50; for change in resistance of SW948CPTH cells compared to the parental cell line SW948: IC50 by cell proliferation assay (Table 3)", "excerpt": "as §1"}, "SW948CPTH cell line": {"test_system": "SW948CPTH cell line", "assay": "SN38 IC50 determination"}, "SW948CPTL cell line": {"test_system": "SW948CPTL cell line", "assay": "SN38 IC50 determination"}, "SW948 cell line": {"test_system": "SW948 cell line", "assay": "SN38 IC50 determination"}, "SW948CPTH cells [1]": {"test_system": "SW948CPTH cells", "assay": "intracellular accumulation of CPT-11 (HPLC), effect of verapamil", "settings": "SW948CPTH; 10 μM verapamil with CPT-11 160 μM, 2 hours", "excerpt": "(§2) 10. […] Cells were washed, trypsinized, and counted. Cell pellets were lysed with water and sonicated. […] Results were generated from three independent experiments. […] Data are expressed as mean±SD. […] Data are the mean±SD of two experiments done in triplicate.\n(§3) Additionally, multidrug resistance can be evaluated by measuring the expression level of p-glycoprotein (p-gp) (Juliano et al Biochim Biophys Acta 11:152-162, 1976) and breast cancer resistant protein (BCRP) (Doyle et al Proc Natl Acad Sci U S A 95:15665-15670, 1998) in SW948 and the resistant SW948 cell lines (SW948CPTH and SW948CPTL). It is understood that the disclosed methods can also be used with other cell lines including other colon cancer cell lines. For example, the disclosed methods can be used with LS174T, WiDr, HT-29, SW403, DLD-1, SW480, SNU-C1, Caco-2, and COLO 205 cell lines."}, "SW948CPTL cells": {"test_system": "SW948CPTL cells", "assay": "intracellular accumulation of CPT-11 (HPLC), effect of verapamil", "settings": "SW948CPTL", "excerpt": "as §2, §3"}, "SW948CPTL": {"test_system": "SW948CPTL", "assay": "cell proliferation assay, cross-resistance to topoisomerase I and II inhibitors", "excerpt": "as §1"}, "SW948CPTH cells [2]": {"test_system": "SW948CPTH cells", "assay": "change of CPT-11 IC50 (clonogenic assay) by verapamil, amiloride or EIPA", "protocol": "as §2\n12. […] Cells were plated on glass coverslips and cultured overnight. Intracellular pH was measured with a fluorescence spectrophotometer after cells were loaded with the pH-sensitive fluorescence dye, BCECF. The data represent the mean±SD of 60 individual cells. […] After 24 h the drugs were removed, cells washed with PBS and drug-free culture medium added to the cell cultures. Data represent the mean±SD from three assays done in triplicate with SW948CPTH cells and two assays done in triplicate for SW948CPTL cells."}, "SW948CPTH cells [3]": {"test_system": "SW948CPTH cells", "assay": "intracellular pH (BCECF fluorescence)", "protocol": "12. […] Cells were plated on glass coverslips and cultured overnight."}}, "data": [{"smiles": "CC[C@@]1(O)C(=O)OCc2c1cc1n(c2=O)Cc2cc3ccccc3nc2-1", "note": "[CPT]", "values": [{"measurement": "IC50", "setting": "SW948", "value": "0.1 ± 0.1", "unit": "µg/mL"}, {"measurement": "IC50", "setting": "SW948CPTH", "value": "0.6 ± 0.6", "unit": "µg/mL"}, {"measurement": "change in resistance of SW948CPTH cells compared to the parental cell line SW948", "setting": "SW948CPTH", "value": "increased resistance"}]}, {"smiles": "CC[C@@]1(O)C(=O)OCc2c1cc1n(c2=O)Cc2cc3cc(O)ccc3nc2-1", "note": "[10-OH-CPT]", "values": [{"measurement": "Sensitivity expressed as IC50", "setting": "SW948", "value": "0.4 ± 0.3", "unit": "µg/mL"}, {"measurement": "change in resistance of SW948CPTH cells compared to the parental cell line SW948", "setting": "SW948CPTH", "value": "increased resistance"}, {"measurement": "Sensitivity expressed as IC50", "setting": "SW948CPTH; SW948CPTH treated with 20 μg/ml CPT-11 for 62 days, then >22 days without CPT-11, mean ± SD", "value": "2.1 ± 1.0", "unit": "µg/mL"}]}, {"smiles": "CCc1c2c(nc3ccc(O)cc13)-c1cc3c(c(=O)n1C2)COC(=O)[C@]3(O)CC", "note": "[SN38]", "values": [{"measurement": "SN38 IC50", "setting": "SW948CPTH cell line", "value": "1.5 ± 0.1", "unit": "µg/mL"}, {"measurement": "SN38 IC50", "setting": "SW948CPTL cell line", "value": "1.8 ± 0.2", "unit": "µg/mL"}, {"measurement": "SN38 IC50", "setting": "SW948 cell line", "value": "0.2 ± 0.01", "unit": "µg/mL"}]}, {"smiles": "COc1ccc(CCN(C)CCCC(C#N)(c2ccc(OC)c(OC)c2)C(C)C)cc1OC", "note": "(stereo not drawn) [Verapamil]", "values": [{"measurement": "effect on intracellular concentration of CPT-11", "setting": "SW948CPTH cells [1]", "value": "increased the intracellular concentration of CPT-11 to a level similar to the SW948 parent cells"}, {"measurement": "intracellular concentration of CPT-11 with verapamil relative to SW948 parent cells", "setting": "SW948CPTL cells; 10 μM verapamil", "value": 2.4, "unit": "times"}, {"measurement": "effect on intracellular concentration of CPT-11", "setting": "SW948CPTL cells; 10 μM verapamil with CPT-11 160 μM, 2 hours", "value": "increased"}]}, {"smiles": "COc1cc([C@@H]2c3cc4c(cc3[C@@H](O[C@@H]3O[C@@H]5CO[C@@H](C)O[C@H]5[C@H](O)[C@H]3O)[C@H]3COC(=O)[C@H]23)OCO4)cc(OC)c1O", "note": "[Etoposide]", "values": [{"measurement": "IC50", "setting": "SW948", "value": "0.9 ± 0.1", "unit": "µg/mL"}, {"measurement": "IC50", "setting": "SW948CPTH", "value": "0.9 ± 0.1", "unit": "µg/mL"}, {"measurement": "change in resistance of SW948CPTH cells compared to the parental cell line SW948", "setting": "SW948CPTH", "value": "no change in resistance"}, {"measurement": "IC50", "setting": "SW948CPTL; Homo sapiens, read-out: Sensitivity expressed as IC50", "value": "1.8 ± 0.3", "unit": "µg/mL"}, {"measurement": "increase in resistance by SW948CPTL cells compared to the parental cell line SW948", "setting": "SW948CPTL; IC50 by cell proliferation assay (Table 3)", "value": 2, "unit": "fold"}]}, {"smiles": "CC1(C)CCC2=C(O1)c1ccccc1C(=O)C2=O", "note": "[Lapachone]", "values": [{"measurement": "IC50", "setting": "SW948", "value": "1.1 ± 0.2", "unit": "µg/mL"}, {"measurement": "IC50", "setting": "SW948CPTH", "value": "0.8 ± 0.2", "unit": "µg/mL"}, {"measurement": "change in resistance of SW948CPTH cells compared to the parental cell line SW948", "setting": "SW948CPTH", "value": "No change"}]}, {"smiles": "N=C(N)NC(=O)c1nc(Cl)c(N)nc1N", "note": "[Amiloride]", "values": [{"measurement": "effect on resistance of the cells to CPT-11", "setting": "SW948CPTH cells [2]; SW948CPTH, amiloride 300 μM with CPT-11 24 h (FIG. 8B)", "value": "decreased the resistance"}, {"measurement": "effect on intracellular pH", "setting": "SW948CPTH cells [3]", "value": "lowered"}, {"measurement": "intracellular pH in the presence of amiloride", "setting": "SW948CPTH cells [3]; from about 6.98 without amiloride (FIG. 8A)", "value": "about 6.85"}]}, {"smiles": "CCN(c1nc(N)c(C(=O)N=C(N)N)nc1Cl)C(C)C", "note": "[EIPA, 5-(N-ethyl-N-isopropyl)amiloride]", "values": [{"measurement": "effect on resistance of cells to CPT-11", "setting": "SW948CPTH cells [2]; EIPA 3 or 10 μM with CPT-11 24 h, FIG. 8B covers SW948CPTH and SW948CPTL", "value": "decreased the resistance"}]}]}
